Legend:
[1] = test system: COLO205 colon adenocarcinoma cells (B-Raf V600E); test: COLO205 cell growth inhibition (ATPlite); format: cell-based; conditions: Homo sapiens, COLO 205, 72 h; COLO205, 3 days incubation
Procedure: (§1) Compounds are assessed in a variety of cell based assays. For example human cell lines with B-Raf V600E mutation (A375 melanoma, SKMEL3 melanoma, and COL0205 colon adenocarcinoma), as well as tumorigenic cell lines with wild-type B-RAF (SW620 colon adenocarcinoma) or with Ras mutations (SKMEL2 melanoma and IPC298 melanoma). Similar assays may be used to assess additional tumorigenic cell lines with Ras mutations, including, but not limited to, M202, M207, M243, M244, M296, S117, HCT116, HCT15, DLD1, MiaPaCa, A549, NCI-H23, NCI-H460, HOP62, MDA-MB231, Hs-578T, HL60, MOLT-4, and CCRF-CEM.
(§2) On day 1, cells are counted, then centrifuged in a conical tube for 5 minutes at 1000 rpm. The supernatant is removed and cells are re-suspended as follows: • SW620 (ATCC catalog #CCL-27): resuspend in Leibovitz's L-15 medium, 2 mM L-glutamine, 10% fetal bovine serum to 6×10^4 cells/mL. • A375 (ATCC catalog #CRL-1619): resuspend in Dulbecco's modified Eagle's medium, 4 mM L-glutamine, 4.5 g/L D-glucose, 10% fetal bovine serum to 6×10^4 cells/mL. • COL0205 (ATCC catalog #CCL-222): resuspend in RPMI 1640, 2 mM L-glutamine, 1.5 g/L sodium bicarbonate, 4.5 g/L D-glucose, 10 mM HEPES, 1.0 mM sodium pyruvate, 10% fetal bovine serum to 6×10^4 cells/mL. • SKMEL2 (ATCC catalog #HTB-68): resuspend in Minimum Eagle essential medium, 2 mM L-glutamine, 1.5 g/L sodium bicarbonate, 0.1 mM non-essential amino acids, 1.0 mM sodium pyruvate, 10% fetal bovine serum to 6×10^4 cells/mL. • SKMEL3 (ATCC catalog #HTB-69): resuspend in McCoy's 5A medium, 1.5 mM L-glutamine, 15% fetal bovine serum to 6×10^4 cells/mL. • IPC298 (DSMZ catalog #ACC 251): resuspend in RPMI 1640, 2 mM L-glutamine, 10% fetal bovine serum to 6×10^4 cells/mL.
(§3) The cells are plated, 50 μL in each well of a 96-well dish (Corning 3610) and incubated at 37° C. in 5% CO2 overnight, cells plated to a final concentration of cells as follows:
(§4) On day 2, compound at a maximum concentration of 5 mM is serially diluted 1:3 for a total of 8 point titration with DMSO as a control. A 1 μL aliquot of each dilution point and control is added to 249 μL growth media and 50 μL is added to a well containing cells, providing 10 μM compound at the maximum concentration point. The cells are incubated for 3 days at 37° C. in 5% CO2.
(§5) On day 5, ATPlite 1 step Luminescence Assay System (Perkin Elmer #6016739) is brought to room temperature along with the cell cultures. ATPlite is added 25 μL to each well, shake for 2 minutes, and the cells are incubated at room temperature for 10 minutes, then luminescence is read on Safire reader. The measured luminescence correlates directly with cell number, such that the reading as a function of compound concentration is used to determine the IC50 value.
(§6) It is understood that the results of these assays may vary as assay conditions are varied. Inhibition levels determined under the conditions described herein represent a relative activity for the compounds tested under the specific conditions employed. The cell based assays are likely to show variability due to the complexity of the system and the sensitivity thereof to any changes in the assay conditions. […] Results for compounds that are tested and show substantially no inhibition below the highest tested concentration are represented as “-” in the tables below. In some instances, the compounds were not tested in all of the assays, or assay results were not valid, as indicated by NA in the tables below.

[2] = test system: SKMEL2 melanoma cells (Ras mutation); test: SKMEL2 cell growth inhibition (ATPlite); format: cell-based; conditions: Homo sapiens, SK-MEL-2, 72 h; SKMEL2, 3 days incubation
Procedure: as §1, §2, §3
SKMEL2: 2,000 cells per well.
as §4, §5, §6

B-Raf V600E = B-Raf V600E (Homo sapiens, UniProt P15056, V600E); test: B-Raf V600E biochemical kinase inhibition (AlphaScreen, biotin-MEK1 substrate); conditions: 100 μM ATP
Procedure: (§7) Compounds to be tested are diluted in dimethyl sulfoxide to a concentration of 0.1 mM. These are serially diluted 15 μL into 30 μL of dimethyl sulfoxide seven times in 96 well plates for a total of 8 dilution points, and for each dilution point 1 μL is added to a well of an assay plate. […] The reaction is started with addition of 10 μL of 200 μM ATP (i.e. final 100 μM ATP). […] The plates are incubated for 3 hours at room temperature and read on Envision reader (Perkin Elmer). […] The signal vs. compound concentration is used to determine the IC50.

[3] = test system: SW620 colon adenocarcinoma cells (wild-type B-RAF); test: SW620 cell growth inhibition (ATPlite); format: cell-based; conditions: Homo sapiens, SW-620, 72 h; SW620, 3 days incubation
Procedure: as §1, §2, §3, §4, §5, §6

[4] = test system: A375 melanoma cells (B-Raf V600E); test: A375 cell growth inhibition (ATPlite); format: cell-based; conditions: Homo sapiens, A-375, 72 h; A375, 3 days incubation
Procedure: as §1, §2, §3, §4, §5, §6

B-Raf = B-Raf (Homo sapiens, UniProt P15056); test: B-Raf biochemical kinase inhibition (AlphaScreen, biotin-MEK1 substrate); conditions: 100 μM ATP
Procedure: as §7

A-Raf = biological target: T1, A-Raf (Homo sapiens, UniProt P10398); test: A-Raf biochemical kinase inhibition (AlphaScreen, biotin-MEK1 substrate); conditions: 100 μM ATP
T1 sequence (P10398 1-606): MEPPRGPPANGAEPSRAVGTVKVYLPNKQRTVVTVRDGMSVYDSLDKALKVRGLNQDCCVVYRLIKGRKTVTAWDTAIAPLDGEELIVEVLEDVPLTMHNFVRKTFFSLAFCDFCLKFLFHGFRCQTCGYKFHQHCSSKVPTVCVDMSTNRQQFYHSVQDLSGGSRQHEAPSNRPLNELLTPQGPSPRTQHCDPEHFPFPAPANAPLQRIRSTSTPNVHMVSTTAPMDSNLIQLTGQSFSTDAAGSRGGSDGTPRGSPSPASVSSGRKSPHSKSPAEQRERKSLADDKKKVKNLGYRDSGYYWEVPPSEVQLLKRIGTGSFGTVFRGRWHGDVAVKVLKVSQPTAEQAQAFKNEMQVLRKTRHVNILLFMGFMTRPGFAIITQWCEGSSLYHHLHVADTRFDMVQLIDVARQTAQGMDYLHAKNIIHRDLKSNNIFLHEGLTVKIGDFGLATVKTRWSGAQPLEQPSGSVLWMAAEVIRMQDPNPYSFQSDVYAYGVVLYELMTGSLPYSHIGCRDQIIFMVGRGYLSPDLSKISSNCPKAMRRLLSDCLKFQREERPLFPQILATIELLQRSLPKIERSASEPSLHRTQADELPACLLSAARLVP
Procedure: as §7

c-Raf-1 = c-Raf-1 (Homo sapiens, UniProt P04049); test: c-Raf-1 biochemical kinase inhibition (AlphaScreen, biotin-MEK1 substrate); conditions: 100 μM ATP
Procedure: as §7

Sequence of B-Raf (P15056 whole entry): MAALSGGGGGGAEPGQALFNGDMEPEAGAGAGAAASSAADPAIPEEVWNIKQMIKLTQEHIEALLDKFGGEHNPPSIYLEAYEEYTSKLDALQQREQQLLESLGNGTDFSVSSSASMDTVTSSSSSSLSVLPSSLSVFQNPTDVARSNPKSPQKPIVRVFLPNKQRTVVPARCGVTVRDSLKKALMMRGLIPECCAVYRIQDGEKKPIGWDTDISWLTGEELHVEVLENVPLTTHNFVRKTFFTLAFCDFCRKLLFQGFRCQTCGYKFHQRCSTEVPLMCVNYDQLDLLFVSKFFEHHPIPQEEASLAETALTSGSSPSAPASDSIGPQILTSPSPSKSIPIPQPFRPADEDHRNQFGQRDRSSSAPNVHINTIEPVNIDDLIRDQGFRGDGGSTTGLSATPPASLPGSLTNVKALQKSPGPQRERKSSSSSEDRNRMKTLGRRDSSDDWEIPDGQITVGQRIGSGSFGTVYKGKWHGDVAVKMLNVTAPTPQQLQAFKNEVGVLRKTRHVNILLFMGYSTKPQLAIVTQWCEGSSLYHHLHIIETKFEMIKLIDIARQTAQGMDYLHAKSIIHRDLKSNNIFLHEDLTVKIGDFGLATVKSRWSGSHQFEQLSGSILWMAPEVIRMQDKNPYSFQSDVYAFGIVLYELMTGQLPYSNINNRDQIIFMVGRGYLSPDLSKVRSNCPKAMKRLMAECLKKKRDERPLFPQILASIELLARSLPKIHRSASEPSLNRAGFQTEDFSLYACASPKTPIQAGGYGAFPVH
Sequence of B-Raf V600E (P15056 whole entry V600E): as the sequence (P15056 whole entry) above, with V600E counted along it
Sequence of c-Raf-1 (P04049 whole entry): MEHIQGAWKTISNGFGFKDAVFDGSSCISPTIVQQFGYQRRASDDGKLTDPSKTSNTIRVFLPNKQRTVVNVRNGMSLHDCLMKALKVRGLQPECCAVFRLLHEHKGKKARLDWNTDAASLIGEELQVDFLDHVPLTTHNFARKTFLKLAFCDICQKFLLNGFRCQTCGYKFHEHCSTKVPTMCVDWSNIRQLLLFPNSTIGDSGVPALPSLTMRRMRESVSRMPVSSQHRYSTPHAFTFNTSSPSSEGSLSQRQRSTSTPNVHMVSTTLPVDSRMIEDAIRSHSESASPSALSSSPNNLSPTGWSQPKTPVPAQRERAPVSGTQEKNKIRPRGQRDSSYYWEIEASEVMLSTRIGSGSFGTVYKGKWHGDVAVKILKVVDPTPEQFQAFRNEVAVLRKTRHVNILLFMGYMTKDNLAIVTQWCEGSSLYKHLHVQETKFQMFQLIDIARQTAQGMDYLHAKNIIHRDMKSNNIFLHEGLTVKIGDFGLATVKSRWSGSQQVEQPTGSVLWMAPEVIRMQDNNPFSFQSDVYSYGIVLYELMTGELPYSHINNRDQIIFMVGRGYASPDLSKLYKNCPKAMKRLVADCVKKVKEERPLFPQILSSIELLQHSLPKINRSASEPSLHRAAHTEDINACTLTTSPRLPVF

Compound	IC50 [1] [nM]	IC50 [2] [nM]	IC50 (B-Raf V600E) [nM]	IC50 [3] [nM]	IC50 [4] [nM]	IC50 (B-Raf) [nM]	IC50 (A-Raf) [nM]	IC50 (c-Raf-1) [nM]
CCCS(=O)(=O)Nc1ccc(F)c(C(=O)c2c[nH]c3ncc(-c4ccc(NC(C)=O)cc4)cc23)c1F [P-2161, N-(4-{3-[2,6-Difluoro-3-(propane-1-sulfonylamino)-benzoyl]-1H-pyrrolo[2,3-b]pyridin-5-yl}-phenyl)-acetamide]	< 1000	< 10000	< 10	> 10000	< 1000	–	–	–
CCCS(=O)(=O)Nc1ccc(F)c(C(=O)c2c[nH]c3ncc(-c4ccc(C)nc4F)cc23)c1F [P-2172, Propane-1-sulfonic acid {2,4-difluoro-3-[5-(2-fluoro-6-methyl-pyridin-3-yl)-1H-pyrrolo[2,3-b]pyridine-3-carbonyl]-phenyl}-amide]	< 1000	< 5000	< 100	< 10000	< 1000	< 100	–	–
CCCS(=O)(=O)Nc1ccc(F)c(C(=O)c2c[nH]c3ncc(-c4ccc(O)nc4)cc23)c1F [P-2234, Propane-1-sulfonic acid {2,4-difluoro-3-[5-(6-hydroxy-pyridin-3-yl)-1H-pyrrolo[2,3-b]pyridine-3-carbonyl]-phenyl}-amide]	< 5000	> 10000	< 10	> 10000	< 5000	< 10	< 10	< 10
CC(C)CS(=O)(=O)Nc1ccc(F)c(C(=O)c2c[nH]c3ncc(-c4cnn(C)c4)cc23)c1F [P-2299, 2-Methyl-propane-1-sulfonic acid {2,4-difluoro-3-[5-(1-methyl-1H-pyrazol-4-yl)-1H-pyrrolo[2,3-b]pyridine-3-carbonyl]-phenyl}-amide]	< 1000	> 10000	< 10	> 10000	< 1000	< 10	–	–
CCCS(=O)(=O)Nc1ccc(F)c(C(=O)c2c[nH]c3ncc(-c4ccc(C(N)=O)nc4)cc23)c1F [P-2220, 5-{3-[2,6-Difluoro-3-(propane-1-sulfonylamino)-benzoyl]-1H-pyrrolo[2,3-b]pyridin-5-yl}-pyridine-2-carboxylic acid amide]	< 1000	–	< 100	> 10000	< 1000	< 100	< 10	< 100

Reference: patent US8198273B2, “Compounds and methods for kinase modulation, and indications therefor” (Plexxikon Inc., priority 2009, dated 2012)
